Source: PubChem BioAssay (NCI)
“And” between values parts separate entries of the source, which are not always exact repeats. Equal values may be shown once.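 A five-concentration, 48-hour dose response in 96-well plates underlies each endpoint, interpolated linearly between surrounding concentrations. Here, GI50 denotes the concentration required for 50% inhibition of growth. TGI: concentration producing complete growth inhibition.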

Key:
Assay in all cases: growth of human tumour cells (NCI), 48 h
[1] = system: UACC-257 melanoma
[2] = system: EKVX NSCLC
[3] = system: NCI-H23 lung
[4] = system: CAKI-1 renal
[5] = system: SK-OV-3 ovarian
[6] = system: SF-268 CNS
[7] = system: SR leukemia
[8] = system: HOP-92 NSCLC
[9] = system: A498 renal
[10] = system: U251 CNS

CN(C)CCC(/C=C/c1ccccc1)=N\Nc1ccc(Cl)c(Cl)c1
TGI [1]: 9.77 µM | TGI [2]: 13.1 µM | TGI [3]: 8.93 µM | TGI [4]: 7.03 µM | TGI [5]: 15.5 µM | TGI [6]: 8.81 µM | TGI [7]: 5.34 µM | TGI [8]: 4.4 µM | TGI [9]: 13.8 µM | TGI [10]: 13.6 µM

N#Cc1ccc(/C=C(/C(=O)c2ccccc2)c2ccccc2)cc1
TGI [1]: 29.6 µM | TGI [2]: 42.9 µM | TGI [3]: 35.2 µM | TGI [4]: 32.1 µM | TGI [5]: > 54.6 µM | TGI [6]: 41.1 µM | TGI [7]: 8.4 µM | TGI [8]: 39.7 µM | TGI [9]: 40 µM | TGI [10]: 25 µM

C=C1c2ccccc2C(=O)c2c1c1c(C(=O)OC)c(OC(=O)OCc3ccc([N+](=O)[O-])cc3)ccc1n2Cc1ccccc1
GI50 [1]: 29.8 µM | TGI [1]: > 100 µM | GI50 [2]: 33.6 µM | TGI [2]: > 100 µM | GI50 [3]: 4.22 µM | TGI [3]: 17.9 µM | GI50 [4]: 20.3 µM | TGI [4]: 58.2 µM | GI50 [5]: 23.8 µM | TGI [5]: 57.6 µM | GI50 [6]: 46.4 µM | TGI [6]: > 100 µM | GI50 [7]: 2.59 µM | TGI [7]: > 100 µM | GI50 [8]: 2.29 µM | TGI [8]: 7.59 µM | GI50 [9]: 65.5 µM | TGI [9]: > 100 µM | GI50 [10]: 39.9 µM | TGI [10]: > 100 µM

O=C1/C=C/[C@@H](O)[C@@H]2C[C@@H](O)C[C@H]2/C=C/CCC[C@H](CCc2ccc3ncccc3c2)O1
GI50 [1]: 0.13 µM | TGI [1]: 5.95 µM | GI50 [2]: 0.289 µM | TGI [2]: > 64.9 µM | GI50 [3]: 0.219 µM | TGI [3]: 1.18 µM | GI50 [4]: 0.282 µM | GI50 [5]: 0.336 µM | TGI [5]: > 32.1 µM | GI50 [6]: 0.322 µM | TGI [6]: > 100 µM | GI50 [7]: 0.296 µM | TGI [7]: 6.5 µM | GI50 [8]: 2.77 µM | TGI [8]: > 100 µM | GI50 [9]: 0.1 µM | GI50 [10]: 0.347 µM | TGI [10]: > 100 µM

O=c1c2ccccc2[nH]c2c(O)ccc(O)c12
TGI [1]: 34.6 µM | TGI [2]: > 62.1 µM | TGI [3]: 71.5 µM | TGI [4]: 30.4 µM | TGI [5]: 65.9 µM | TGI [6]: 76.5 µM | TGI [7]: 39.2 µM | TGI [8]: 34.5 µM | TGI [9]: 96 µM | TGI [10]: 21.6 µM

O=[N+]([O-])c1cccc(-c2nc(-c3ccc(Cl)cc3Cl)cn2-c2ccccc2)c1
GI50 [1]: 1.41 µM | TGI [1]: 10.7 µM | GI50 [2]: 0.56 µM | TGI [2]: 2.5 µM | GI50 [3]: 5.15 µM | TGI [3]: > 27.1 µM | GI50 [4]: 0.477 µM | TGI [4]: 1.21 µM | GI50 [5]: 3.06 µM | TGI [5]: 29.9 µM | GI50 [6]: 1.14 µM | TGI [6]: 5.5 µM | GI50 [7]: 1.24 µM | TGI [7]: > 33.3 µM | GI50 [8]: 0.105 µM | TGI [8]: 22.7 µM | TGI [9]: > 9.06 µM | GI50 [10]: 0.614 µM | TGI [10]: 1.26 µM

CCOC(=O)Nc1nc2ccccc2[nH]1
GI50 [1]: 3.77 µM | TGI [1]: > 100 µM | GI50 [2]: > 24 µM | TGI [2]: > 100 µM | GI50 [3]: 8.17 µM and > 21.9 µM | TGI [3]: > 100 µM | GI50 [4]: 3.84 µM and 3.73 µM | TGI [4]: > 100 µM | GI50 [5]: 4.69 µM and 4.19 µM | TGI [5]: > 100 µM | GI50 [6]: > 100 µM | TGI [6]: > 100 µM | GI50 [7]: 2.64 µM and 1.1 µM | TGI [7]: > 100 µM | GI50 [8]: > 100 µM | TGI [8]: > 100 µM | GI50 [9]: 2.42 µM and 3.81 µM | TGI [9]: > 28.8 µM | GI50 [10]: 5.2 µM and 4.48 µM | TGI [10]: > 100 µM
